# Laboratory results as given in US9913830B2, “Materials and methods for modulating immune responses” (UNIVERSITY OF FLORIDA RESEARCH FOUNDATION, INCORPORATED, priority 2011, dated 2018).
# Assays:
# naïve human CD4+ T cells = assay: FOXP3 induction in naïve CD4+ T cells, flow cytometry; type: cell-based
# Experimental: Freshly isolated naïve (CD4+ CD25− CD127hi CD45RO−) T cells are cultured and treated with PDE3b and PDE4 inhibitors (middle panel) or rapamycin (positive control) (right panel), or are left untreated (left panel). CD25 and FOXP3 expression is measured by flow cytometry after 14 days of expansion.
# Treatment of Tregs with small molecules that maintain high cAMP levels in T cells can be used to induce a regulatory phenotype. Small molecules that maintain high cAMP levels in T cells include agents that inhibit PDEs and agents that activate AC.
# NOD mice = assay: Onset of diabetes in NOD mice, blood glucose monitoring; type: in vivo; details: 8-week old NOD mice, 65 mg/kg i.p., three times a week for five weeks, monotherapy
# Experimental: Briefly, 8-week old NOD mice are injected (i.p.) with various doses of cilostamide (low: 0.65 mg/kg, medium: 6.5 mg/kg, high: 65 mg/kg), or vehicle only. Cilostamide is administered three times a week for five weeks. The onset of diabetes in treated mice is monitored by blood glucose measurements. Diabetes is diagnosed if the blood glucose readings are greater than 240 mg/dl for two days.
# The increase in level of FoxP3+ cells at an early stage of the autoimmune attack can be used to prevent or delay the onset of autoimmune disease. Briefly, 8-week old NOD mice are treated with various doses (low: 0.65 mg/kg; medium: 6.5 mg/kg; high: 65 mg/kg) of cilostamide via intraperitoneal (i.p.) injection. Cilostamide is administered to the mice three times a week for five weeks.
smiles,measurement,setting,value
CN(C(=O)CCCOc1ccc2[nH]c(=O)ccc2c1)C1CCCCC1 [cilostamide],FOXP3 induction,"naïve human CD4+ T cells; naïve CD4+ CD25− CD45RO− T cells, 14 days of expansion, vs non-treated controls",increased FOXP3 induction
same,ratio of FOXP3+ cells,"naïve human CD4+ T cells; naïve CD4+ T cells, 14 days, vs rapamycin positive control",comparable to that of the rapamycin-treated group
same,onset of diabetes,NOD mice,delayed the onset of diabetes
